Laboratory results: patent US5025036A, “Catechol carboxylic acids” (Hoffmann-La Roche Inc., priority 1989, dated 1991)

Assay: Rat In Vivo Model of Myocardial Ischemia (free radical generator infusion)
Parameters: species or system male spontaneously hypertensive rats
Details: for Rat Ischemia Model % Infarction: percent of left ventricle infarcted of the animals with an infarct
Procedure: In this preparation a free radical generating (FRG) system consisting of purine (2.3 mM), xanthine oxidase (0.02 U/ml) and iron loaded transferring (0.6 μM) complex is infused into the carotid artery near the ostium of the coronary artery in spontaneously hypertensive rats. Blood is withdrawn before and 24 hours after the FRG challenge for measuring the isoenzymes of lactic acid dehydrogenase (LDH1 :LDH2). An increase in LDH1 :LDH2 ratio reflects cell damage to the myocardium. The electrocardiogram is also taken before and 24 hours after the FRG infusion. At the end of the experiment the heart is removed, sliced in a breadloaf fashion, and stained with triphenyltetrazolium chloride to determine infarct size. A drug or vehicle is administered intravenously 10-30 minutes before the FRG challenge. A drug is considered active if there is no elevation of the LDH1 :LDH2 ratio, no ECG abnormalities and no histologic evidence of an infarction.
Male spontaneously hypertensive rats (280-320 g) from Taconic Farms, were lightly anesthetized with sodium pentobarbital (30-50 mg/kg, i.p.). […] A catheter of PE 50 tubing was inserted into the right common carotid artery to a position proximal to the ostia of the coronary arteries and used to sample blood and infuse the free radical generator (FRG) system. A second catheter of PE 10 tubing was inserted into the left jugular vein to administer drugs. The infusion system for the FRG consisted of a double syringe infusion pump, Sage Model 351, with one syringe containing xanthine oxidase (0.01 units/ml) in a HEPES (0.05M) buffer and the other syringe containing purine (2.3 mM) plus Fe^3+ loaded transferring (0.06 μM) in a HEPES (0.05M) buffer. The FRG infused separately mixes simultaneously near the ostia of the coronary arteries. This infusion was delivered at a rate of 0.03 ml/minute for a total infusion time of 10 minutes. The drugs were infused over a one minute period in a 0.9% saline vehicle.
Standard Lead II ECG was monitored continuously on a Hewlett-Packard 7758A recorder prior to treatment, throughout the FRG infusion and 10 minutes post infusion. Catheters were removed and animals were allowed to recover and fed standard rat chow and water ad libitum. 24 hours following the FRG infusion, animals were reanesthetized with sodium pentobarbital (30-50 mg/kg, i.p.) and an ECG was obtained. Blood samples were taken prior to and after the FRG infusion and at the conclusion of the experiment. These samples were centrifuged and assayed for total lactate dehydrogenase (LDH) and lactate dehydrogenase isoenzymes (LDH1 :LDH2), using electrophoresis.
The animals were sacrificed, the hearts rapidly excised, and washed free of blood and sectioned. The left ventricle was weighed and stored in a Revco® freezer at -70° C. The left ventricle was sliced into 2 mm-thick rings, incubated in a 1% triphenyltetrazolium chloride solution for 20 minutes, and then fixed in a 10% formalin solution. Infarcted areas were measured and quantitated as a percentage of the total left ventricular volume.

Compound	Rat Ischemia Model Infarcts/Total (10 mg/kg iv)	Rat Ischemia Model % Infarction (10 mg/kg iv)	Rat Ischemia Model Infarcts/Total (5 mg/kg iv)	Rat Ischemia Model % Infarction (5 mg/kg iv)
CCCc1c(OCCCCc2cccc(O)c2O)ccc(C(C)=O)c1O [1-[2-Hydroxy-4-[4-(2,3-dihydroxyphenyl)butoxy]-3-propylphenyl]ethanone]	1/5	12%		
CCCc1c(OCCCCCCc2ccc(C(C)C)c(O)c2O)ccc(C(C)=O)c1O [1-[2-hydroxy-4 [6-[2,3 dihydroxy-4-(1-methylethyl)phenyl]hexyloxy]-3 propylphenyl]ethanone]	2/5	11%		
CCCc1c(OCCCCCCc2cccc(O)c2O)ccc(C(C)=O)c1O [1-[2-hydroxy-4-[6-(2,3-dihydroxyphenyl)hexyloxy]-3-propylphenyl]ethanone]	4/4	24%		
CCCc1c(OCCCCc2cccc(O)c2O)ccc(C(=O)O)c1O [4-[4-(2,3-dihydroxyphenyl)butoxy]-2-hydroxy-3-propylbenzoic acid]	2/5	8%		
CCCc1c(OCCCCCc2cccc(O)c2O)ccc(C(=O)O)c1O [4-[5-(2,3-Dihydroxyphenyl)pentyloxy]-2-hydroxy-3-propylbenzoic acid]	4/5	15%		
CCCc1c(OCCCCCCc2cccc(O)c2O)ccc(C(=O)O)c1O [4-[6-(2,3-Dihydroxyphenyl)hexyloxy]-2-hydroxy-3-propylbenzoic acid]	4/5	8%		
O=C(O)c1ccc(OCCCCCCc2cccc(O)c2O)cc1O [4-[6-(2,3-Dihydroxyphenyl)hexyloxy]-2-hydroxybenzoic acid]	3/5	10%		
O=C(O)c1ccc(OCCCCCCc2cccc(O)c2O)cc1 [4-[6-(2,3-Dihydroxyphenyl)hexyloxy]benzoic acid]	2/5	19%		
CCCc1c(OCCCCCCc2ccc(O)c(O)c2)ccc(C(=O)O)c1O [4-[6-(3,4-dihydroxyphenyl)hexyloxy]-2-hydroxy-3-propylbenzoic acid]			1/5	11%
CCCc1c(OCCCCCCc2ccc(C(C)C)c(O)c2O)ccc(C(=O)O)c1O [4-[6-[2,3-dihydroxy-4-(1-methylethyl)phenyl]hexyloxy]-2-hydroxy-3-propylbenzoic acid]	1/5	5%		
CCCc1c(OCCCCCCCc2cccc(O)c2O)ccc(C(=O)O)c1O [4-[7-(2,3-dihydroxyphenyl)heptyloxy]-2-hydroxy-3-propylbenzoic acid]	3/5	18%		
CCCc1c(OCCCCCCCCc2cccc(O)c2O)ccc(C(=O)O)c1O [4-[8-(2,3-dihydroxyphenyl)octyloxy]-2-hydroxy-3-propylbenzoic acid]	1/5	8%		
CCCc1c(OCCCCCCCCCCc2cccc(O)c2O)ccc(C(=O)O)c1O [4-[10-(2,3-dihydroxyphenyl)decyloxy]-2-hydroxy-3-propylbenzoic acid]	3/3	13%		
